The target of this test is T1, human CCR-3 (Homo sapiens, UniProt P51677).
T1 construct: expressed in transfected cells; membranes prepared
T1 sequence (P51677 1-355): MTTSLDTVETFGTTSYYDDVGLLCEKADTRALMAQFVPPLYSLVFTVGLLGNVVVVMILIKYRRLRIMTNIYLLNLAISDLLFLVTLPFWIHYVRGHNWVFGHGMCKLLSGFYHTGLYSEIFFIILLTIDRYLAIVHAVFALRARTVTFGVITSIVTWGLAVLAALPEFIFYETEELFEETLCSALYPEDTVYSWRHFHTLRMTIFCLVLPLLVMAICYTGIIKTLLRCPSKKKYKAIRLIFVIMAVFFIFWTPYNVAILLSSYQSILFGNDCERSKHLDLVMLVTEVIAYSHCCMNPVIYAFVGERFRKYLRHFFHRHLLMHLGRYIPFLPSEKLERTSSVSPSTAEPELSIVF
The experiment in a line: [125I]-human eotaxin binding SPA assay on membranes of RBL-2H3 cells stably expressing CCR3. Conditions: membranes of RBL-2H3 cells expressing CCR3, 50 pM [125I]-human eotaxin, 4 hours at room temperature, read-out: IC50 (inhibition of binding of [125I]-human eotaxin to CCR-3). The text has this:
Recombinant cells expressing human CCR-3 are captured by wheatgerm agglutinin (WGA) polyvinyltoluidene (PVT) SPA beads (available from Amersham), through a specific interaction between the WGA and carbohydrate residues of glycoproteins on the surface of the cells. [^125I]-human eotaxin (available from Amersham) binds specifically to CCR-3 receptors bringing the [^125I]-human eotaxin in close proximity to the SPA beads. Emitted â-particles from the [^125I]-human eotaxin excite, by its proximity, the fluorophore in the beads and produce light.
Preparation of Assay Buffer: 5.96 g HEPES and 7.0 g sodium chloride are dissolved in distilled water and 1 M aqueous CaCl2 (1 ml) and 1M aqueous MgCl2 (5 ml) are added. The pH is adjusted to 7.6 with NaOH and the solution made to a final volume of 1 l using distilled water. 5 g bovine serum albumin and 0.1 g sodium azide are then dissolved in the solution and the resulting buffer stored at 4° C. A COMPLETE™ protease inhibitor cocktail tablet (available from Boehringer) is added per 50 ml of the buffer on the day of use. […]
The assay is performed in a final volume of 250 μl per well of an OPTIPLATE™ microplate (ex Canberra Packard). […] The resulting scintillations are counted using a Canberra Packard TopCount, each well being counted for 1 minute. […]

For orientation: IC50 means the concentration at which inhibition is half-maximal.

In the case of `Cc1noc(C)c1S(=O)(=O)N1CCC(CN2CCN(Cc3ccc(F)cc3)CC2)CC1` [Example 1, 1-[1-(3,5-Dimethylisoxazole-4-sulfonyl)-piperdin-4-yl-methyl]-4-(4-fluorobenzyl)-piperazine], the 50% inhibitory concentration (IC50) amounted to 257 nM. The result for `COc1ccc(OC)c(S(=O)(=O)N2CCC(CN3CCN(Cc4ccc(F)cc4)CC3)CC2)c1` [Example 3, 1-[1-(2,5-dimethoxybenzenesulfonyl)piperidinyl-4-ylmethyl]-4-(4-fluorobenzyl)piperazine] reads 56 nM.

The values above are taken from patent US7482347B2, “Piperazine derivatives with CCR-3 inhibiting activity” (priority 2004, dated 2009).
